Where “and” joins values, the source holds several entries; their conditions need not be identical. Equal values may be shown once. One block for each molecule: values may come before it.
Experiments:
[1] = molecular target: T1, ERα (Homo sapiens, UniProt P03372); test: Cell-based luciferase reporter assay, full length ERα, agonist mode; details: 22 h
T1 construct: employs a full length and native ER (comprised of an ER LBD and an ER DBD)
T1 sequence (P03372 1-595): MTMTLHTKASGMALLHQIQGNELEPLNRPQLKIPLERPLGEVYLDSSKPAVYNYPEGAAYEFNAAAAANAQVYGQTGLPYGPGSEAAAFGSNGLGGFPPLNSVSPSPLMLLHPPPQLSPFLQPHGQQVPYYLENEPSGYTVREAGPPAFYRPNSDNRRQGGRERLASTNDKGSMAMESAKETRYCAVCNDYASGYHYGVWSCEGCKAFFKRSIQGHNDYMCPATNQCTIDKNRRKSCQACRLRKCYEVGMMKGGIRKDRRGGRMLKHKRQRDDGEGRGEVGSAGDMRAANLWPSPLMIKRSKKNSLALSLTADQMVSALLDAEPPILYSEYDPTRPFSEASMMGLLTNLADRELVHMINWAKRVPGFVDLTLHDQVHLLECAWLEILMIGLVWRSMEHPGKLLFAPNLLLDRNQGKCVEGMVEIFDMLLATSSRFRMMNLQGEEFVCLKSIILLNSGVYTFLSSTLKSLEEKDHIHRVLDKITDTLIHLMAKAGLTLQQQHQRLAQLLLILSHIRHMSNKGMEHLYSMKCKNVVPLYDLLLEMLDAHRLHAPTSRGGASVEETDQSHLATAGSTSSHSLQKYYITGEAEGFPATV

[2] = molecular target: T1, ERα; test: Cell-based luciferase reporter assay, full length ERα, antagonist mode
[3] = molecular target: T2, human ER Beta ligand-binding domain (LBD) (Homo sapiens, UniProt Q92731); test: TR-FRET competitive binding assay, ERβ LBD; details: displacement of fluorescent tracer from ERβ LBD
T2 construct: purchased Thermo Fisher Scientific

[4] = tested on: ovariectomized mice; test: Peripheral tissue pathology (H&E of liver, kidney, heart); format: in vivo; details: 24 h after single IP injection; 0.5 or 5 mg/kg ISP358-2, 0.05 mg/kg DPN
Procedure: Assessment of Potential Peripheral Pathology. To assess possible toxicity of ISP358-2 treatment to peripheral organs, ovariectomized mice received a single intraperitoneal injection of vehicle or ISP358-2, and liver, kidney, and heart tissues were collected 24 hours later. […] Tissues were fixed in 10% formalin buffered solution for 24 hours. Twenty specimens were processed and analyzed. Each specimen contained three pieces of tissue. The tissues from each animal was transferred to a labeled cassette and processed on an automated tissue processor following standard procedures. The tissues were then embedded in paraffin wax. No specific orientation of the tissue was performed. Four-micron sections were cut from each paraffin block and placed onto a slide. The slides were then stained using hematoxylin and cosin (H&E) on an automated stainer (FIGS. 13A-13L). The slides were then examined by a pathologist (ACM) who is board certified in anatomical pathology by the American Board of Pathology. All specimens contained three tissue samples corresponding to liver, kidney, and heart. In some instances, portions of adjacent tissues were also present. […] For heart, the myocytes and coronary vessels were examined, (2) evidence of inflammation was evaluated including hepatitis, glomerulonephritis, interstitial nephritis, and myocarditis, and (3) evidence of ischemic changes was examined. […]

[5] = full length ERα, read-out: ERα agon. IC50
[6] = inhibition of estradiol-induced transcription, read-out: ERα antagon. IC50

T2 sequence (Q92731 264-498 limits assumed): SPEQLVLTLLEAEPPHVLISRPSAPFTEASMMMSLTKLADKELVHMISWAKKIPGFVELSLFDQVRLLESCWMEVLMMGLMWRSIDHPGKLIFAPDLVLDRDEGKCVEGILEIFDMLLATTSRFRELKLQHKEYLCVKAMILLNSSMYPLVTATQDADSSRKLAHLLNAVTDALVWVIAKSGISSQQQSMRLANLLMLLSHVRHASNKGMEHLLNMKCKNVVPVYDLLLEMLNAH

IC50 [1, 5]: > 10 µM
IC50 [2, 6]: > 10 µM
SMILES: CC1CCC(c2ccc(O)cc2)CC1 (mixture of isomers) [Compound 8, 4-(4-Methylcyclohexyl) phenol]

IC50 [1, 5]: > 20 µM
IC50 [2, 6]: > 10 µM
SMILES: OCC1CC=C(c2ccc(O)cc2)CC1 (racemic) [Compound 18, 4′-(Hydroxymethyl)-2′,3′,4′,5′-tetrahydro-[1,1′-biphenyl]-4-ol]

IC50 [3]: 2.7 µM
SMILES: OCC1(O)CCC(c2ccc(O)cc2)CC1 (single isomer, unassigned) [Compound 12, 4-(4-Hydroxy-4-(hydroxymethyl)cyclohexyl) phenol]

SMILES: OCC1CCC(c2ccc(O)cc2)CC1 (stereo not drawn) [15:16 (3:2), 4-(4-(Hydroxymethyl)cyclohexyl) phenol]
IC50 ([1]; ERα agon. IC50, full length ERα): > 100 µM
IC50 [2]: > 10 µM

IC50 [3]: 19 µM
SMILES: O=C1CCC(c2ccc(O)cc2)CC1 [Compound 1, 4-(4-hydroxyphenyl) cyclohexanone]

IC50 [3]: 7.25 µM and 7.52 µM
SMILES: Oc1ccc([C@H]2CC[C@H](O)CC2)cc1 [Compound 2, trans-4-(4-Hydroxycyclohexyl) phenol]

IC50 [3]: 6.29 µM
SMILES: C[C@]1(O)CC[C@@H](c2ccc(O)cc2)CC1 [Compound 3, 4-(4-Hydroxy-4-methylcyclohexyl) phenol]

IC50 [3]: 1.57 µM
SMILES: ON=C1CCC(c2ccc(O)cc2)CC1 (stereo not drawn) [Compound 4, 4-(4-Hydroxyphenyl) cyclohexanone oxime]

IC50 [1, 5]: > 10 µM
IC50 [2, 6]: > 10 µM
SMILES: C=C1CCC(c2ccc(O)cc2)CC1 [Compound 7, 4-(4-Hydroxyphenyl) methylenecyclohexane]

IC50 [3]: 1 µM
SMILES: C=C1CCC(c2ccc(O)c(C=O)c2)CC1 [Compound 9, 2-Hydroxy-5-(4-methylenecyclohexyl) benzaldehyde]

IC50 [3]: 0.225 ± 0.094 µM
SMILES: C=C1CCC(c2ccc(O)c(/C=N/O)c2)CC1 [Compound 10, 2-Hydroxy-5-(4-methylenecyclohexyl) benzaldehyde oxime]

IC50 [3]: 0.25 ± 0.056 µM
SMILES: Oc1ccc([C@]23CC[C@H](CC2)CO3)cc1 [Compound 17, 1-(4-Hydroxyphenyl)-2-oxabicyclo [2.2.2] octane]

SMILES: OCC=C1CCC(c2ccc(O)cc2)CC1 (stereo not drawn) [Compound 24, 4-(4′-Hydroxyphenyl) (2-hydroxyethylidene) cyclohexane]
IC50 [3]: 0.676 µM
IC50 ([3]; listed as (±)-24): 0.68 ± 0.11 µM

IC50 [1, 5]: > 50 µM
IC50 [2, 6]: > 10 µM
SMILES: OCCC1CCC(c2ccc(O)cc2)CC1 (stereo not drawn) [Compound 25, 4-[4-(2-Hydroxyethyl)cyclohexyl] phenol]

SMILES: N#CC(Cc1ccc(O)cc1)c1ccc(O)cc1 (stereo not drawn) [DPN, 2,3-bis(4-hydroxyphenyl)-propionitrile, reference compound]
histological abnormalities / peripheral toxicity in liver, kidney, heart [4]: Histological abnormalities were not detected

From patent US20240327421A1 (Marquette University, priority 2017, published 2024)
